# Where a name gives a salt, the structure may show the parent alone. Read-outs that look alike come from different tables or passages of the source.
# How the values were obtained:
# [1] = cited from earlier work
# [2] = cited from earlier work; remark: listed apart in the source
# [3] = test system: typical syndrome produced by intraperitoneal injection of 0.6% aqueous acetic acid; test: writhing test (acetic acid); type: in vivo, mice; conditions: for ED50: Mus musculus
# Protocol: The test was based on the specific antagonism of the test compound to
# typical syndrome produced by intraperitoneal injection of 0.6% aqueous
# acetic acid. The syndrome was characterized by intermittent contractions
# of the abdomen, twisting and turning of the trunk and extension of the
# hind legs. A group of 5 mice was used for each dose level. The test
# compound was administered 60 minutes before the injection of acetic acid
# subcutaneously (sc) or orally (po).
# pain response was recorded. The ED50 value was calculated according
# to the LitchfieldWilcoxen's method.
# [4] = abstinence syndrome test (body weight after drug withdrawal); conditions: for Abstinence syndrome: subcutaneous, twice a day, male rats, body weight decrease the day after withdrawal
# Protocol: Groups of male rats of Wister strain (body weight, 150 g), each group
# consisting of 20 male rats, were subcutaneously given the test compound
# twice a day for 4 consecutive weeks. On the next day after drug
# withdrawal, body weight was measured. The symbols have the following
# meanings: +++, severe decrease (about 5% decrease); ++, moderate decrease
# +, mild decrease; -, no decrease. A marked decrease is taken as an […]
# [5] = sc, subcutaneous, 60 minutes before acetic acid, mice, Litchfield-Wilcoxen, read-out: ED50 SC
# [6] = oral, 60 minutes before acetic acid, mice, Litchfield-Wilcoxen, read-out: ED50 PO
smiles,measurement,setting,value
"CC1C2Cc3ccc(O)cc3C1(C)CCN2CCCC(=O)c1ccc(F)cc1 (stereo not drawn) [2-[γ-(p-fluorobenzoyl)-propyl]-2'-hydroxy-5,9-dimethyl-6,7-benzomorphan]",drug addiction,"[1]; U.S. Pat. No. 3,833,595",without causing drug addiction
same,effectiveness by route of administration,"[2]; 2-[γ-(p-fluorobenzoyl)-propyl]-2'-hydroxy-5,9-dimethyl-6,7-benzomorphan",effective when administered parenterally rather than orally
same,analgesic activity,"[2]; U.S. Pat. No. 3,833,595",significant analgesic activity
"CC(C)=CCN1CCC2(C)c3cc(O)ccc3CC1C2C (stereo not drawn) [2'-hydroxy-5,9-dimethyl-2-(3""-methyl-2""-butenyl)-6,7-benzomorphan]",ED50,[3]; [5],17.6 mg/kg
same,ED50,[3]; [6],98 mg/kg
"Cc1ccc2c(c1)C1(C)CCN(CCCC(=O)c3ccc(F)cc3)C(C2)C1C (stereo not drawn) [Example 1, 2-[γ-(p-Fluorobenzoyl)-propyl]-2',5,9-trimethyl-6,7-benzomorphan]",ED50,[3]; [5],7.9 mg/kg
same,ED50,[3]; [6],9.6 mg/kg
same,analgesic effectiveness compared with pentazocine,[3]; oral and subcutaneous administration,more effective than pentazocine
same,Abstinence syndrome,[4]; 40 mg/kg/day for 4 weeks,-
same,addictive property,[4]; as shown in Table 2,did not exhibit any addictive property
"CN1CC[C@]23c4c5ccc(O)c4O[C@H]2[C@@H](O)C=C[C@H]3[C@H]1C5 [Morphine . hydrochloride, Morphine]",ED50,"[3]; po, read-out: ED50 PO",7 mg/kg
same,ED50,"[3]; sc, read-out: ED50 SC",1.6 mg/kg
"CC1C2Cc3ccc(O)cc3C1(C)CCN2C (stereo not drawn) [2'-Hydroxy-2,5,9-trimethyl-6,7-benzomorphan]",addiction liability,"[1]; U.S. Pat. No. 3,138,603",has an addiction liability
same,analgesia,"[2]; U.S. Pat. No. 3,138,603",potent analgesia
same,Abstinence syndrome,[4]; 20 mg/kg/day for 4 weeks,++
